Literature values as cited in US6420378B1, “Inhibition of abnormal cell proliferation with camptothecin and combinations including the same” (priority 1999, dated 2002).

What was measured:
[1] = test system: human colon cancer xenografts; details: mouse, in vivo
[2] = test system: human tumor xenografts
[3] = clinical trials, administered intravenously
[4] = test system: tumorigenic human cells; details: in vitro
[5] = test system: nontumorigenic human cells; details: in vitro

CC[C@@]1(O)C(=O)OCc2c1cc1n(c2=O)Cc2cc3c(N)cccc3nc2-1 [9AC, 9-Amino-20(S)-Camptothecin]
anticancer activity against human colon cancer xenografts [1]: high anticancer activity

CC[C@@]1(O)C(=O)OCc2c1cc1n(c2=O)Cc2cc3c([N+](=O)[O-])cccc3nc2-1 [9NC, 9-nitrocamptothecin]
growth of human tumor xenografts ([2]; immunodeficient nude mice): inhibited the growth | activity against human tumor xenograft models ([2]; mouse, in vivo): high activity | regression of human tumors established as xenografts ([2]; nude mice): induced regression

CC[C@@]1(O)C(=O)OCc2c1cc1n(c2=O)Cc2cc3cc4c(cc3nc2-1)OCO4 [10,11 MD, 10,11-Methylendioxy-20(S)-Camptothecin]
anticancer activity against human colon cancer xenografts [1]: high anticancer activity

CC[C@@](O)(C(=O)[O-])c1cc2n(c(=O)c1CO)Cc1cc3ccccc3nc1-2.[Na+] [20(S)-camptothecin Na+]
potency [3]: low potency | toxicity [3]: high toxicity

CC[C@@]1(O)C(=O)OCc2c1cc1n(c2=O)Cc2cc3ccccc3nc2-1 [20(S)-camptothecin]
effect on tumorigenic cells [4]: cytotoxic | effect on nontumorigenic cells [5]: cytostatic
